Assay results as given in US11208422B2, “Substituted bridged diazepane derivatives and use thereof as TASK-1 and TASK-3 inhibitors” (Bayer Pharma Aktiengesellschaft, priority 2017, dated 2021).

Experiments:
recombinant TASK-3 = recombinant TASK-3 (Homo sapiens (Human), UniProt Q9NPC2); assay: Inhibition of recombinant TASK-3 in stably transfected CHO cells (KCl-induced depolarization, voltage-sensitive dye, FLIPR); type: cell-based; conditions: depolarization induced by 40 mM potassium chloride, some mean values from multiple determinations
Protocol: (§1) The compounds of the invention were tested here with administration of 40 mM of potassium chloride in the presence of a voltage-sensitive dye using the method described in detail in the following references [Whiteaker et al., Validation of FLIPR membrane potential dye for high-throughput screening of potassium channel modulators, J. Biomol. Screen. 6 (5), 305-312 (2001); Molecular Devices FLIPR Application Note: Measuring membrane potential using the FLIPR® membrane potential assay kit on Fluorometric Imaging Plate Reader (FLIPR®) systems, http://www.moleculardevices.com/reagents-supplies/assay-kits/ion-channels/flipr-membrane-potential-assay-kits]. The activity of the test substances was determined as their ability to inhibit a depolarization induced in the recombinant cells by 40 mM potassium chloride. The concentration which can block half of this depolarization is referred to as IC50.

recombinant TASK-1 = recombinant TASK-1 (Homo sapiens (Human), UniProt O14649); assay: Inhibition of recombinant TASK-1 in stably transfected CHO cells (KCl-induced depolarization, voltage-sensitive dye, FLIPR); type: cell-based; conditions: depolarization induced by 40 mM potassium chloride, some mean values from multiple determinations
Protocol: as §1

recombinant TASK-3, sequence (Q9NPC2 whole entry): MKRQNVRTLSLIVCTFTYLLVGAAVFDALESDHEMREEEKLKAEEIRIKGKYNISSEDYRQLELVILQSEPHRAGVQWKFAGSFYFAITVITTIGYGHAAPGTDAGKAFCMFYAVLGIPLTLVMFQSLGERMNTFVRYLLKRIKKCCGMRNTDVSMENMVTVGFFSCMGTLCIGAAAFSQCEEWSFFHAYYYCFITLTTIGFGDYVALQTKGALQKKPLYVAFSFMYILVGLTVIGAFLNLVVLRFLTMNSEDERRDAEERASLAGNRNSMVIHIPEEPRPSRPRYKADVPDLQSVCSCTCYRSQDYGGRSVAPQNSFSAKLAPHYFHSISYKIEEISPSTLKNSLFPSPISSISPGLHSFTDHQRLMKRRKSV
recombinant TASK-1, sequence (O14649 whole entry): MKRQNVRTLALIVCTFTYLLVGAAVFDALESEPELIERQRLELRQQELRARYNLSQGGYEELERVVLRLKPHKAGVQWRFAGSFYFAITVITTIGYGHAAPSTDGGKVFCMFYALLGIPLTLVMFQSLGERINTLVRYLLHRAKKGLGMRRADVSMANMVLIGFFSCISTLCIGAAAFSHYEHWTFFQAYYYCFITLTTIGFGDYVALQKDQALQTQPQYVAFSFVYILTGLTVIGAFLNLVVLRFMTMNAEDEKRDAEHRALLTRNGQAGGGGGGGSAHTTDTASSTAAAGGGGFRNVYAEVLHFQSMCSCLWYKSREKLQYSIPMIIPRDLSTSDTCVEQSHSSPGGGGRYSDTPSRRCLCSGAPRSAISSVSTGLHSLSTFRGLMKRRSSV

| SMILES | IC50 (recombinant TASK-3) [nM] | IC50 (recombinant TASK-1) [nM] |
| --- | --- | --- |
| Nc1nonc1C(=O)N1C2CCN(Cc3c(-c4ccc(Cl)cc4)nc4ncccn34)CC1COC2 (racemic) [Example 77, (4-amino-1,2,5-oxadiazo1-3-yl)[3-{[2-(4-chlorophenyl)imidazo[1,2-a]pyrimidin-3-yl]methyl}-8-oxa-3,10-diazabicyclo[4.3.1]dec-10-yl]methanone] | 270 | 3300 |
| COc1ccc(F)c(C(=O)N2CCC3CCC(C2)N3Cc2c(-c3ccc(C(C)C)cc3)nc3ncccn23)n1 (centres unmarked) [Example 58] | 920 | 2900 |
| COc1ccc(F)c(C(=O)N2C3CCC2CN(Cc2c(-c4ccc(C(C)C)cc4)nc4ncccn24)CC3)n1 (centres unmarked) [Example 102] | 36 | 170 |
| COc1ccc(F)c(C(=O)N2CCC3CCC(C2)N3Cc2c(-c3ccc(C(C)C)cc3)nc3ncccn23)n1 (centres unmarked) [Example 53] | 380 | 1300 |
| COc1cccc(C(=O)N2C3CCC2CN(Cc2c(-c4ccc(Cl)cc4)nc4ccccn24)CC3)n1 (single isomer, unassigned) [Example 91, [3-{[2-(4-Chlorophenyl)imidazo[1,2-a]pyridin-3-yl]methyl}-3,9-diazabicyclo[4.2.1]non-9-yl](6-methoxypyridin-2-yl)methanone] | 5.5 | 290 |
| COc1cccc(C(=O)N2CCC3CCC2CN3Cc2c(-c3ccc(Cl)cc3)nc3ncccn23)n1 (centres unmarked) [Example 32] | 4.1 | 130 |
| COc1ccc(Cl)c(C(=O)N2CCC3CCC(C2)N3Cc2c(-c3ccc(C(C)C)cc3)nc3ncccn23)n1 (centres unmarked) [Example 59] | 680 | 1100 |
| COc1cccc(C(=O)N2C3CCC2CN(Cc2c(-c4ccc(C(C)C)cc4)nc4ncccn24)CC3)n1 (centres unmarked) [Example 105] | 370 | 3700 |
| COc1ccc(Cl)c(C(=O)N2CCC3CCC2CN3Cc2c(-c3ccc(Cl)cc3)nc3ccccn23)n1 (centres unmarked) [Example 28] | 5.6 | 280 |
| O=C(c1ccccc1F)N1CCC2CCC1CN2Cc1c(-c2ccc(Cl)cc2)nc2ncccn12 (centres unmarked) [Example 22] | 370 | 27000 |
| COc1ccc(F)c(C(=O)N2C3CCC2CN(Cc2c(-c4ccc(Cl)cc4)nc4ncccn24)CC3)n1 (single isomer, unassigned) [Example 83, [3-{[2-(4-chlorophenyl)imidazo[1,2-a]pyrimidin-3-yl]methyl}-3,9-diazabicyclo[4.2.1]non-9-yl](3-fluoro-6-methoxypyridin-2-yl)methanone] | 17 | 410 |
| COc1ccc(F)c(C(=O)N2C3CCC2CN(Cc2c(-c4ccc(Cl)cc4)nc4ccccn24)CC3)n1 (single isomer, unassigned) [Example 78, [3-{[2-(4-chlorophenyl)imidazo[1,2-a]pyridin-3-yl]methyl}-3,9-diazabicyclo[4.2.1]non-9-yl](3-fluoro-6-methoxypyridin-2-yl)methanone] | 5 | 220 |
| COc1ccc(F)c(C(=O)N2CC3CCC2CN(Cc2c(-c4ccc(Cl)cc4)nc4ccccn24)C3)n1 (single isomer, unassigned) [Example 94, [3-{[2-(4-chlorophenyl)imidazo[1,2-a]pyridin-3-yl]methyl}-3,6-diazabicyclo[3.2.2]non-6-yl](3-fluoro-6-methoxypyridin-2-yl)methanone] | 110 | 3200 |
| O=C(c1ccccc1F)N1C2CCC1CN(Cc1c(-c3ccc(Cl)cc3)nc3ccccn13)CC2 (single isomer, unassigned) [Example 88, [3-{[2-(4-Chlorophenyl)imidazo[1,2-a]pyridin-3-yl]methyl}-3,9-diazabicyclo[4.2.1]non-9-yl](2-fluorophenyl)methanone] | 1.6 | 91 |
| COc1cccc(C(=O)N2C3CCN(Cc4c(-c5ccc(Cl)cc5)nc5ccccn45)CC2COC3)n1 (racemic) [Example 72, [3-{[2-(4-chlorophenyl)imidazo[1,2-a]pyridin-3-yl]methyl}-8-oxa-3,10-diazabicyclo[4.3.1]dec-10-yl](6-methoxypyridin-2-yl)methanone] | 5.1 | 120 |
| COc1cccc(C(=O)N2CCC3CCC2CN3Cc2c(-c3ccc(Cl)cc3)nc3ncccn23)n1 (centres unmarked) [Example 21] | 140 | 18000 |
| COc1ccc(F)c(C(=O)N2CCC3CCC2CN3Cc2c(-c3ccc(Cl)cc3)nc3ncccn23)n1 (single isomer, unassigned) [Example 17, [6-{[2-(4-Chlorophenyl)imidazo[1,2-a]pyrimidin-3-yl]methyl}-2,6-diazabicyclo[3.2.2]non-2-yl](3-fluoro-6-methoxypyridin-2-yl)methanone] | 15 | 3300 |
| CC(C)c1ccc(-c2nc3ncccn3c2CN2C3CCC2CN(C(=O)C2CCCC2)CC3)cc1 (centres unmarked) [Example 62] | 1000 | 8400 |
| COc1cccc(C(=O)N2C3CCC2CN(Cc2c(-c4ccc(Cl)cc4)nc4ccccn24)CC3)n1 (single isomer, unassigned) [Example 90, [3-{[2-(4-Chlorophenyl)imidazo[1,2-a]pyridin-3-yl]methyl}-3,9-diazabicyclo[4.2.1]non-9-yl](6-methoxypyridin-2-yl)methanone] | 2.8 | 43 |
| COc1cccc(C(=O)N2CCC3CCC2CN3Cc2c(-c3ccc(Cl)cn3)nc3ccccn23)n1 (centres unmarked) [Example 18] | 167 | 1600 |
| COc1ccc(Cl)c(C(=O)N2C3CCC2CN(Cc2c(-c4ccc(Cl)cn4)nc4ccccn24)CC3)n1 (racemic) [Example 100, (3-chloro-6-methoxypyridin-2-yl)(3-{[2-(5-chloropyridin-2-yl)imidazo[1,2-a]pyridin-3-yl]methyl}-3,9-diazabicyclo[4.2.1]non-9-yl)methanone] | 42 | 370 |
| CC(C)c1ccc(-c2nc3ncccn3c2CN2C3CCC2CN(C(=O)c2ccccc2F)CC3)cc1 (centres unmarked) [Example 64] | 1800 | 7200 |
| COc1ccc(Cl)c(C(=O)N2CCC3CCC2CN3Cc2c(-c3ccc(Cl)cc3)nc3ncccn23)n1 (centres unmarked) [Example 23] | 24 | 3000 |
| COc1ccc(Cl)c(C(=O)N2C3CCC2CN(Cc2c(-c4ccc(Cl)cc4)nc4ncccn24)CC3)n1 (racemic) [Example 99, (3-chloro-6-methoxypyridin-2-yl)(3-{[2-(4-chlorophenyl)imidazo[1,2-a]pyrimidin-3-yl]methyl}-3,9-diazabicyclo[4.2.1]non-9-yl)methanone] | 34 | 290 |
| COc1cccc(C(=O)N2C3CCC2CN(Cc2c(-c4ccc(Cl)cc4)nc4ccccn24)CC3)n1 (racemic) [Example 70, [3-{[2-(4-chlorophenyl)imidazo[1,2-a]pyridin-3-yl]methyl}-3,9-diazabicyclo[4.2.1]non-9-yl](6-methoxypyridin-2-yl)methanone] | 4.7 | 305 |

Further lines, results first:

| IC50 (recombinant TASK-3) [nM] | IC50 (recombinant TASK-1) [nM] | SMILES |
| --- | --- | --- |
| 1000 | 30000 | COc1cccc(C(=O)N2CCC3CCC2CN3Cc2c(-c3ccc(Cl)cc3)nc3ccccn23)n1 (centres unmarked) [Example 37] |
| 500 | 24000 | Nc1nonc1C(=O)N1CCC2CCC1CN2Cc1c(-c2ccc(Cl)cc2)nc2ncccn12 (centres unmarked) [Example 35] |
| 4 | 250 | COc1ccc(F)c(C(=O)N2CCC3CCC2CN3Cc2c(-c3ccc(Cl)cc3)nc3ccccn23)n1 (centres unmarked) [Example 38] |
| 160 | 2200 | COc1cccc(C(=O)N2CCC3CCC2CN3Cc2c(-c3ccc(C(C)C)cc3)nc3ncccn23)n1 (centres unmarked) [Example 41] |
| 370 | 3400 | O=C(c1cccc(OC(F)F)n1)N1CCC2CCC1CN2Cc1c(-c2ccc(Cl)cc2)nc2ncccn12 (centres unmarked) [Example 67] |
| 250 | 2500 | COc1ccc(Cl)c(C(=O)N2CCC3CCC2CN3Cc2c(-c3ccc(C(C)C)cc3)nc3ncccn23)n1 (centres unmarked) [Example 43] |
| 170 | 2900 | CC(C)c1ccc(-c2nc3ncccn3c2CN2CC3CCC2CCN3C(=O)c2cccc(OC(F)F)n2)cc1 (centres unmarked) [Example 45] |
| 110 | 1100 | CC(C)c1ccc(-c2nc3ncccn3c2CN2CC3CCC2CCN3C(=O)c2cccc(OC(F)F)n2)cc1 (centres unmarked) [Example 51] |
| 540 | 5500 | COc1ccc(F)c(C(=O)N2CCC3CCC2CN3Cc2c(-c3ccc(C(C)C)cc3)nc3ncccn23)n1 (centres unmarked) [Example 49] |
| 19 | 180 | O=C(c1cccc(OC(F)(F)F)n1)N1CCC2CCC1CN2Cc1c(-c2ccc(Cl)cc2)nc2ncccn12 (centres unmarked) [Example 66] |
| 29 | 3300 | Nc1nonc1C(=O)N1CCC2CCC1CN2Cc1c(-c2ccc(Cl)cc2)nc2ccccn12 (centres unmarked) [Example 40] |
| 440 | 2500 | COc1ccc(Cl)c(C(=O)N2CCC3CCC2CN3Cc2c(-c3ccc(C(C)C)cc3)nc3ncccn23)n1 (centres unmarked) [Example 50] |
| 110 | 2600 | COc1ccc(F)c(C(=O)N2CCC3CCC2CN3Cc2c(-c3ccc(Cl)cc3)nc3ncccn23)n1 (centres unmarked) [Example 33] |
| 200 | 4100 | COc1ccc(Cl)c(C(=O)N2CCC3CCC2CN3Cc2c(-c3ccc(Cl)cc3)nc3ncccn23)n1 (centres unmarked) [Example 34] |
| 220 | 1400 | O=C(c1cccc(OC(F)(F)F)n1)N1CCC2CCC1CN2Cc1c(-c2ccc(Cl)cc2)nc2ncccn12 (centres unmarked) [Example 65] |
